Measurements from BindingDB's records for doi:10.1016/s0960-894x(99)00097-9 (University of Minnesota, 1999).

Target: Lactoylglutathione lyase (Saccharomyces cerevisiae)
Experiment: Ability to inhibit yeast glyoxalase I enzyme in 0.05 M phosphate buffer, pH 6.6, 30 degree C

SMILES: NC(CNC(=O)NC(CSCc1ccc(Br)cc1)C(=O)NCC(=O)O)C(=O)O (stereo unspecified) [2-Amino-3-{3-[2-(4-bromo-benzylsulfanyl)-1-(carboxymethyl-carbamoyl)-ethyl]-ureido}-propionic acid]
- Ki: 15.5 µM
